Measurements: ChEMBL document CHEMBL5241130, “Integrating a phenotypic screening with a structural simplification strategy to identify 4-phenoxy-quinoline derivatives to potently disrupt the mitotic localization of Aurora kinase B” (Bioorg Med Chem, 2023)
In brackets after ≈: the same amount, converted by molar mass. Activity calls are given as the source filed them. No cut-off for these calls is given here.

Experiments:
[1] = target: Mitotic checkpoint serine/threonine-protein kinase BUB1 (Homo sapiens) (UniProt O43683); test: Inhibition of Bub1 (unknown origin) by bio-chip based analysis
Chain of Mitotic checkpoint serine/threonine-protein kinase BUB1 (Homo sapiens) (O43683 whole entry, looked up): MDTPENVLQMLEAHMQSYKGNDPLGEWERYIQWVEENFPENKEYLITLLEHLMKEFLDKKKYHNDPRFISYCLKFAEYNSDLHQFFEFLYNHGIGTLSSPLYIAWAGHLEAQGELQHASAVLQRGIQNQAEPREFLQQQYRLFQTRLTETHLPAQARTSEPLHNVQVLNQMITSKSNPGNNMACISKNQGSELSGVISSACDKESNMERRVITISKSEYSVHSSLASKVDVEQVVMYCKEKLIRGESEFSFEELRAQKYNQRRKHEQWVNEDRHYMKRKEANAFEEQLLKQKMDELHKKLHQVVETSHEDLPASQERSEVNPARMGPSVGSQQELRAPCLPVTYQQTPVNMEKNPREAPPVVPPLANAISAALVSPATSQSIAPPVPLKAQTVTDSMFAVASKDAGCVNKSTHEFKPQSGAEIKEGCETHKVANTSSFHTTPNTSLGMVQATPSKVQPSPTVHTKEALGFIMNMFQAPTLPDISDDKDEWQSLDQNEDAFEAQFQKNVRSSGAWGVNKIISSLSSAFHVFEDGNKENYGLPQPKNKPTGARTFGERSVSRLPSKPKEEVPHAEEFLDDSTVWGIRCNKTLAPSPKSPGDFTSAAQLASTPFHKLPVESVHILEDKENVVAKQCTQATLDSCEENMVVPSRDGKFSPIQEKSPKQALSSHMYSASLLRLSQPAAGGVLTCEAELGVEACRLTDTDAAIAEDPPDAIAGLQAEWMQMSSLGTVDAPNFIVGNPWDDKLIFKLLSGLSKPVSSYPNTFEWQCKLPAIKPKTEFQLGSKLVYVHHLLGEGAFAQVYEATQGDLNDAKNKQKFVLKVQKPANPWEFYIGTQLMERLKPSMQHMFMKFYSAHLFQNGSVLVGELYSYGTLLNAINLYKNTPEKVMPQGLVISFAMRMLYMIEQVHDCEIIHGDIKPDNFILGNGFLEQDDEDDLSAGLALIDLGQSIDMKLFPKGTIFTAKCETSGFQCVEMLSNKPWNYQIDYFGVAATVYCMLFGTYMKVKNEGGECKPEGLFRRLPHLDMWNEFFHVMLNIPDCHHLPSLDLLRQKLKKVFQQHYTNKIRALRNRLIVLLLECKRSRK

SW480 = test: Cytotoxicity against human SW480 cells assessed as cell growth inhibition incubated for 3 days by MTT assay; assay type: functional, cell-based; settings: time 3.0 day
[2] = target: Aurora kinase B (Homo sapiens) (UniProt Q96GD4); test: Disruption of mitotic localization of AURKB in human RPE-MYC H2B-GFP cells assessed as induction of mitotic arrest by fluorescence high content cell imaging analysis; assay type: cell-based
Chain of Aurora kinase B (Homo sapiens) (Q96GD4 whole entry): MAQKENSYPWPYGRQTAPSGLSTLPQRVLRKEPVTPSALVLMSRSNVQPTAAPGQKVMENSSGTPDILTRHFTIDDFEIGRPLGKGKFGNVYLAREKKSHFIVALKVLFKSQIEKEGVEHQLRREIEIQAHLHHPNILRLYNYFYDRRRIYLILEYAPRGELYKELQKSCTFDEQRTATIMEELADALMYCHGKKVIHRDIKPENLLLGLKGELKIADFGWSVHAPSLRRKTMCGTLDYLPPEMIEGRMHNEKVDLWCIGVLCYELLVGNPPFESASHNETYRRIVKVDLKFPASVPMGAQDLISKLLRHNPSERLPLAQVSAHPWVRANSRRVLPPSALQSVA

[3] = target: Aurora kinase B (Homo sapiens) (UniProt Q96GD4); test: Disruption of kinetochore localization of AURKB during prophase of human RPE-MYC cells expressing BCL2 at 40 nM measured after 6 hrs by immunofluorescence staining analysis; assay type: cell-based
[4] = Toxicity in BALB/c nude mouse xenografted with human HCT-116 cells assessed as body weight at 50 mg/kg, po bid for 7 days; assay type: organism-based; settings: in vivo, 168 h, time 7 day
[5] = target: Aurora kinase B (Homo sapiens) (UniProt Q96GD4); test: Inhibition of AURKB in human RPE-MYC H2B-GFP cells assessed as inhibition of histone H3 phosphorylation at Ser10 residue at 8XMEC measured after 6 hrs by immunofluorescence staining analysis; assay type: cell-based
[6] = target: Aurora kinase B (Homo sapiens) (UniProt Q96GD4); test: Disruption of mitotic localization of AURKB in human RPE-MYC cells expressing BCL2 assessed as disruption of MKLP1 localization at spindle mid-zone at 40 nM measured after 6 hrs by immunofluorescence staining analysis; assay type: cell-based
MDA-MB-231 = test: Cytotoxicity against human MDA-MB-231 cells assessed as cell growth inhibition incubated for 3 days by MTT assay; assay type: functional, cell-based; settings: time 3.0 day
[7] = target: Rho-associated protein kinase 2 (Homo sapiens) (UniProt O75116); test: Inhibition of ROCK2 (unknown origin) by bio-chip based analysis
Chain of Rho-associated protein kinase 2 (Homo sapiens) (O75116 whole entry, looked up): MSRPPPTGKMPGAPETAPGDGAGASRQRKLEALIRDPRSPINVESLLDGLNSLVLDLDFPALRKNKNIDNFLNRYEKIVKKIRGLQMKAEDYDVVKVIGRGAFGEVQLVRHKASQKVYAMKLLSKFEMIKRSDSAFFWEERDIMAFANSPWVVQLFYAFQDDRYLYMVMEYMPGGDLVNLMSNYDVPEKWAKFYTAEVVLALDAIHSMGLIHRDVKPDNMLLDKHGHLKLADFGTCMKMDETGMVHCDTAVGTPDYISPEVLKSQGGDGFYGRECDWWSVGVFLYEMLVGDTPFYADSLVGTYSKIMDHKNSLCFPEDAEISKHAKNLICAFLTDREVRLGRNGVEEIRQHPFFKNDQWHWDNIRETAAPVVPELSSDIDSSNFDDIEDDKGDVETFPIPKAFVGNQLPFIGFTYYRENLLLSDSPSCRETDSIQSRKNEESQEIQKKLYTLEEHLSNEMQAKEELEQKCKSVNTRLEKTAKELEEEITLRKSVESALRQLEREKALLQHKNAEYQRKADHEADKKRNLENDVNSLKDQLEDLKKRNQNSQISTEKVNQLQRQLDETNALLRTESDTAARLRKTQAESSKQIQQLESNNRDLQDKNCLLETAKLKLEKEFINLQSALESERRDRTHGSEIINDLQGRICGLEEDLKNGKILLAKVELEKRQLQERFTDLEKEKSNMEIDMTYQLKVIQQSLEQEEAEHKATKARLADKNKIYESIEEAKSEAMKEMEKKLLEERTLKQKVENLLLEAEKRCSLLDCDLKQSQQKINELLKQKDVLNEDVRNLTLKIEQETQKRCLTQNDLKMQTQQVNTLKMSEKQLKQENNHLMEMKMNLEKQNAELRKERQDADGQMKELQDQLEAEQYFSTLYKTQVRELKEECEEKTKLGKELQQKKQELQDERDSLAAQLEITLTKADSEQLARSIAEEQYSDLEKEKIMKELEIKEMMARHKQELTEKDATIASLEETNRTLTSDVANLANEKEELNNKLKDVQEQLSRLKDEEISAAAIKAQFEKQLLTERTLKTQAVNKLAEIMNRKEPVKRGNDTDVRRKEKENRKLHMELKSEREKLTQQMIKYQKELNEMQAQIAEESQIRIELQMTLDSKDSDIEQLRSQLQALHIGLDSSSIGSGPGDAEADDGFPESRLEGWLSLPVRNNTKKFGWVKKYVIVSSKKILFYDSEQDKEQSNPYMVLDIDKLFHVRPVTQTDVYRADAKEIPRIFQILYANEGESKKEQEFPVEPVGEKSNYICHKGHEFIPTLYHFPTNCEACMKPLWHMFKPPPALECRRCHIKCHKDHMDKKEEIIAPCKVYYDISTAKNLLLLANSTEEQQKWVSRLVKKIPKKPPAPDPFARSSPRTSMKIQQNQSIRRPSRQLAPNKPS

[8] = Clearance in Wistar rat at 20 mg/kg, po measured for 24 hrs by LC-MS/MS analysis; assay type: ADME, organism-based; settings: in vivo
Mus musculus = test: Induction of mitotic arrest in BALB/c nude mouse xenografted with human HCT-116 cells assessed as increase in mitotic index by measuring increase in accumulation of H3Ser10P positive cells in tumor at 50 mg/kg, po bid for 7 days by immunohistochemical staining based analysis relative to control; assay type: functional; settings: time 7 day
[9] = target: Tyrosine-protein kinase ABL1 (Homo sapiens) (UniProt P00519); test: Inhibition of human recombinant ABL1 at 2 uM by KINOMEscan assay
Chain of Tyrosine-protein kinase ABL1 (Homo sapiens) (P00519 whole entry): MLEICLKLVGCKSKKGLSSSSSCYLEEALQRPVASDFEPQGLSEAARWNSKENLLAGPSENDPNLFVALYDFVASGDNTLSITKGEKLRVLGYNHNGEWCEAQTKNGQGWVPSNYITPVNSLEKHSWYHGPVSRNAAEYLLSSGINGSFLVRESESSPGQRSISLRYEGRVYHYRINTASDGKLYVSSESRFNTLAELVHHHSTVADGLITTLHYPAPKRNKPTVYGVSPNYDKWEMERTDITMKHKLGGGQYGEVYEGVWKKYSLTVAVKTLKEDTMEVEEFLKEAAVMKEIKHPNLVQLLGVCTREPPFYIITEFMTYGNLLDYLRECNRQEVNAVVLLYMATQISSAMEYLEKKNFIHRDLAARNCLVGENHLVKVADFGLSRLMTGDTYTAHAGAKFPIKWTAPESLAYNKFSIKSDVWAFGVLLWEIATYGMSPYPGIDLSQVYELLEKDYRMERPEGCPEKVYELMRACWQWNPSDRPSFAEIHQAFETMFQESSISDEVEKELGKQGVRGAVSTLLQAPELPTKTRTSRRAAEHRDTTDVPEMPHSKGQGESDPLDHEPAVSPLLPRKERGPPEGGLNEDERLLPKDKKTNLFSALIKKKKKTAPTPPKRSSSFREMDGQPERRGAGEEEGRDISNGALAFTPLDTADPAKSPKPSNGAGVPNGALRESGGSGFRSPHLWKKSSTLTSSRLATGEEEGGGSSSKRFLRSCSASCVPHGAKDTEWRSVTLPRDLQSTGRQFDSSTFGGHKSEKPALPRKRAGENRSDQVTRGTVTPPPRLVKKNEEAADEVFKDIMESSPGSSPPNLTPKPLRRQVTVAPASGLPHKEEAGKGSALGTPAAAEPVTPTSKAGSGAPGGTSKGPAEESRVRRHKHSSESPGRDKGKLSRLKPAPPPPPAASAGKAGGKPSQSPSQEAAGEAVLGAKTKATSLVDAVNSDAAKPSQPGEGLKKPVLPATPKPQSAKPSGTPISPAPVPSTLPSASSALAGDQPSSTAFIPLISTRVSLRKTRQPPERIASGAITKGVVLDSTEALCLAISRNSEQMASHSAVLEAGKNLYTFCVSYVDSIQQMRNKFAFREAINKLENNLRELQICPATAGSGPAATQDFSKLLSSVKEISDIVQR

[10] = Kinetic solubility of the compound in HCl buffer at pH 2.2 measured after 72 hrs by LC-MS analysis; assay type: physicochemical; settings: read-out: Kinetic_solubility
[11] = MRT (0 to infinity) in Wistar rat at 2 mg/kg, iv by LC-MS/MS analysis; assay type: ADME, organism-based; settings: in vivo
NCI-N87 = test: Cytotoxicity against human NCI-N87 cells assessed as cell growth inhibition incubated for 3 days by MTT assay; assay type: functional, cell-based; settings: time 3.0 day
[12] = Drug degradation in HCl buffer at pH 2.2 measured after 72 hrs by LC-MS analysis; assay type: physicochemical; settings: read-out: Drug degradation
[13] = target: Aurora kinase B (Homo sapiens) (UniProt Q96GD4); test: Disruption of mitotic localization of AURKB in human RPE-MYC H2B-GFP cells assessed as induction of polyploidy by fluorescence high content cell imaging analysis; assay type: cell-based
[14] = target: T1, Aurora kinase A (Homo sapiens) (UniProt O14965); test: Inhibition of AURKA in human RPE-MYC H2B-GFP cells assessed as inhibition of autophosphorylation of AURKA at Thr288 residue at 8XMEC measured after 6 hrs by immunofluorescence staining analysis; assay type: cell-based
T1 sequence (whole entry): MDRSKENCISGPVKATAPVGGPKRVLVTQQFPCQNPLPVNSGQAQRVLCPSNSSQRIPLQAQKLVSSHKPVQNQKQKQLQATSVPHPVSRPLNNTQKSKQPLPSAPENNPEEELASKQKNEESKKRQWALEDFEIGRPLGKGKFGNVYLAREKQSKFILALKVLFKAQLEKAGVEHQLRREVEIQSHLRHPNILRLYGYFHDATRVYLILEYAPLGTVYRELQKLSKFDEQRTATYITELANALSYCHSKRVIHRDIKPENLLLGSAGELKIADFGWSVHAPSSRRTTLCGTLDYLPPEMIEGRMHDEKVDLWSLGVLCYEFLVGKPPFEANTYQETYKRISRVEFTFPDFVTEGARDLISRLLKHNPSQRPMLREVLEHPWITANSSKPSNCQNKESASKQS

[15] = target: Serine/threonine-protein kinase PLK3 (Homo sapiens) (UniProt Q9H4B4); test: Inhibition of PLK3 (unknown origin) by bio-chip based analysis
Chain of Serine/threonine-protein kinase PLK3 (Homo sapiens) (Q9H4B4 whole entry, looked up): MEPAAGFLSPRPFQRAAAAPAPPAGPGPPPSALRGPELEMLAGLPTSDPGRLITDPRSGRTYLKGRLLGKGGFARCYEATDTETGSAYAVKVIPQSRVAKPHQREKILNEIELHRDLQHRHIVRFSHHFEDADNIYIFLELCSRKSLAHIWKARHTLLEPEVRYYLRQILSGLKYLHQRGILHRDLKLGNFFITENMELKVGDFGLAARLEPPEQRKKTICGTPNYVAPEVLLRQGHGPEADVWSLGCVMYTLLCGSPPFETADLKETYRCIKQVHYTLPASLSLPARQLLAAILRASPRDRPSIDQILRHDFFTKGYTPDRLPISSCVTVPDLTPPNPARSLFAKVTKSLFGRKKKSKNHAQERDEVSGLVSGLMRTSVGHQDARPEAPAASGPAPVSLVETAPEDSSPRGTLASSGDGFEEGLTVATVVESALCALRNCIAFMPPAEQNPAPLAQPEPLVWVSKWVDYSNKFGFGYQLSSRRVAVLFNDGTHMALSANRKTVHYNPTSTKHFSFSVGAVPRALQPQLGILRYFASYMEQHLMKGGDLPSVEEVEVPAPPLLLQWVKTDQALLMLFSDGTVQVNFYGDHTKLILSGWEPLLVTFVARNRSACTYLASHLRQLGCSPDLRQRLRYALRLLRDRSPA

[16] = target: Mast/stem cell growth factor receptor Kit (Homo sapiens, UniProt P10721); test: Inhibition of c-Kit (unknown origin); assay type: toxicity
[17] = MRT (0 to infinity) in Wistar rat at 20 mg/kg, po by LC-MS/MS analysis; assay type: ADME, organism-based; settings: in vivo
[18] = target: Aurora kinase B (Homo sapiens) (UniProt Q96GD4); test: Disruption of mitotic localization of AURKB in human RPE-MYC cells expressing BCL2 assessed as disruption of PLK1 localization at centrosome during prophase at 40 nM measured after 6 hrs by immunofluorescence staining analysis; assay type: cell-based
[19] = Oral bioavailability in Wistar rat at 20 mg/kg measured for 24 hrs by LC-MS/MS analysis; assay type: ADME, organism-based; settings: in vivo
[20] = Lipophilicity, log D of the compound in Octanol and HCl buffer at pH 2.2 incubated for 24 hrs under shaking condition followed by incubation for 1 hr without shaking by LC-MS analysis; assay type: physicochemical
[21] = Lipophilicity, log D of the compound in Octanol and PBS buffer at pH 7.4 incubated for 24 hrs under shaking condition followed by incubation for 1 hr without shaking by LC-MS analysis; assay type: physicochemical
[22] = target: Discoidin domain-containing receptor 2 (Homo sapiens) (UniProt Q16832); test: Inhibition of human recombinant DDR2 at 2 uM by KINOMEscan assay
[23] = Kinetic solubility of the compound in PBS buffer at pH 7.4 measured after 72 hrs by LC-MS analysis; assay type: physicochemical; settings: read-out: Kinetic_solubility
[24] = Tmax in Wistar rat at 20 mg/kg, po measured for 24 hrs by LC-MS/MS analysis; assay type: ADME, organism-based; settings: in vivo
[25] = Volume of distribution at steady state in Wistar rat at 2 mg/kg, iv measured after 24 hrs by LC-MS/MS analysis; assay type: ADME, organism-based; settings: in vivo, read-out: Vdss
[26] = target: Aurora kinase B (Homo sapiens) (UniProt Q96GD4); test: Disruption of mitotic localization of AURKB at the spindle mid-zone and equatorial cortex in human RPE-MYC cells expressing BCL2 at 40 nM measured after 6 hrs by immunofluorescence staining analysis; assay type: cell-based
[27] = Half life in Wistar rat at 20 mg/kg, po measured for 24 hrs by LC-MS/MS analysis; assay type: ADME, organism-based; settings: in vivo
[28] = Ratio of AUC (0 to 6 hrs) in BALB/c nude mouse xenografted with human HCT-116 cells at 50 mg/kg, po bid for 7 days to AUC (0 to 6 hrs) in BALB/c nude mouse xenografted with human HCT-116 cells administered as single dose; assay type: ADME, organism-based; settings: in vivo
[29] = Drug degradation in human plasma at 1 to 10 uM incubated for 2 hrs by LC-MS analysis; assay type: ADME, cell-free; settings: dose 1-10 µM, read-out: Drug degradation
[30] = target: Aurora kinase B (Homo sapiens) (UniProt Q96GD4); test: Inhibition of AURKB (unknown origin) by bio-chip based analysis

inhibition [1]: inactive
Activity [2]: inactive
Activity [3]: inactive
inhibition [5]: < 40%
Activity [6]: Active
inhibition [7]: inactive
CL/F [8]: 54.7 mL/min/kg
inhibition [9]: Active
solubility kinetic at 72 h [10]: > 190 µM
MRT inf [11]: 2.09 h
degraded at 72 h [12]: 0%
MEC [13]: 0.01 µM
inhibition [14]: < 40%
inhibition [15]: inactive
MRT inf [17]: 2.83 h
Activity [18]: inactive
bioavailability [19]: 27.6%
logD at 25 h [20]: 0.31
logD at 25 h [21]: 3.81
inhibition [22]: Active
solubility kinetic at 72 h [23]: 16 µM (≈ 5.41 µg/mL)
Tmax [24]: 0.5 h
Vd [25]: 3.7 L/kg
Activity [26]: Active
half-life [27]: 3.26 h
Ratio [28]: 2
metabolised at 2 h, up to 10 µM [29]: 0%
inhibition [30]: inactive
Structure (SMILES): COc1cc(NC(C)=O)cc(Oc2ccnc3ccc(OC)cc23)c1
Activity (SW480): Active
Activity [4]: Non-Toxic
Activity (MDA-MB-231): Active
fold change (FC) (Mus musculus): 6.7
Activity (NCI-N87): Active
inhibition (INH) [16]: Not Active
